Assays:
[1] = Chemical stability of GHB as a function of pH (GBL formation); conditions: aqueous GHB compositions
[2] = Maximum solubility of GHB as a function of pH of the aqueous medium; format: physicochemical
Description: It will be understood that the maximum solubility of GHB is affected by the pH of the aqueous medium. For example, at about pH 4, the maximum amount of Na•GHB that can be dissolved is about 450 mg/ml.

SMILES	pH at which GBL begins to form [1]	minimal pH that will dissolve 750 mg/ml GHB ([2]; 750 mg/ml GHB, aqueous medium)	maximum amount that can be dissolved ([2]; aqueous medium at about pH 4)
O=C(O)CCCO [GHB, gamma-hydroxybutyrate]	≤ 6	~6.8	
O=C([O-])CCCO.[Na+] [Na•GHB, sodium gamma-hydroxybutyrate]			about 450 mg/ml

— patent US10675258B2, “Method of using gamma-hydroxybutyrate compositions for the treatment of disorders” (Jazz Pharmaceuticals Ireland Limited, priority 2012, dated 2020)
